Source: the supplement of paper PMC7108870

How the values were obtained:
HEK293sieSTAT3(wt) [1] = assay: drug sensitivity score (DSS), viability CellTiter-Glo (DSS (dimensionless)); higher = more growth inhibition; extreme values may be limits of the assay; details: 72 h; STAT3 variant: wild type
In short: (§1)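 A drug sensitivity score, based on the area of the dose-response curve, was calculated in Breeze after normalising values to negative and positive control wells. It came from HEK293 cells carrying a STAT3-dependent luciferase reporter and overexpressing wild-type or mutant STAT3, plated at 20 μl of 100,000 cells/ml onto compounds acoustically pre-plated at 5 concentrations in 10-fold dilutions in 384-well plates. Following 72 hours at 37°C and 5% CO2, CellTox Green fluorescence (485/520 nm) and then CellTiter-Glo luminescence were read on a PHERAstar FS.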

HEK293sieSTAT3(Y640F) [2] = assay: as above; details: 72 h; STAT3 variant: Y640F (constitutively active)
In short: as §1

HEK293sieSTAT3(wt) [3] = assay: drug sensitivity score (DSS), cytotoxicity CellTox Green (DSS (dimensionless)); higher = more cytotoxic; extreme values may be limits of the assay; details: 72 h; STAT3 variant: wild type
In short: as §1

HEK293sieSTAT3(Y640F) [4] = assay: as above; details: 72 h; STAT3 variant: Y640F (constitutively active)
In short: as §1

SMILES	drug sensitivity score (HEK293sieSTAT3(wt) [1])	drug sensitivity score (HEK293sieSTAT3(Y640F) [2])	drug sensitivity score (HEK293sieSTAT3(wt) [3])	drug sensitivity score (HEK293sieSTAT3(Y640F) [4])
Cn1ncc(Cl)c1-c1cc(C(=O)N[C@H](CN)Cc2ccc(F)c(F)c2)oc1Cl [Uprosertib] (top concentration tested 10000 nM)	15.3	12.7	0	0
Oc1ncc(N(CCCl)CCCl)c(O)n1 [Uramustine] (top concentration tested 10000 nM)	0.26	0.79	0	0
CS(=O)(=O)c1ccc(-c2cnc(N)c(C(=O)Nc3ccccc3)n2)cc1 [VE-821] (top concentration tested 10000 nM)	2.94	2.27	0	0
O=C(O)CC1CC(c2ccccc2)=NO1 (stereo unspecified) [VGX-1027] (top concentration tested 10000 nM)	1.07	3.98	0	0
CNC(=O)c1ccccc1Nc1cc(Nc2ccc(N3CCOCC3)cc2OC)ncc1C(F)(F)F [VS-4718] (top concentration tested 10000 nM)	7.27	8.98	0.44	0
O=c1ncn2nc(Sc3ccc(F)cc3F)ccc2c1-c1c(Cl)cccc1Cl [VX 745] (top concentration tested 10000 nM)	2.43	4.64	0	0
CCCC(CCC)C(=O)O [Valproic acid] (top concentration tested 1000000 nM)	3.15	3.24	0	0
CCCCC(=O)OCC(=O)[C@]1(O)Cc2c(O)c3c(c(O)c2[C@@H](O[C@H]2C[C@H](NC(=O)C(F)(F)F)[C@H](O)[C@H](C)O2)C1)C(=O)c1c(OC)cccc1C3=O [Valrubicin] (top concentration tested 5000 nM)	22.8	21.9	0.89	0
COc1cc2/c(=N/c3ccc(Br)cc3F)nc[nH]c2cc1OCC1CCN(C)CC1 [Vandetanib] (top concentration tested 1000 nM)	4.73	2.31	0	0
CCc1c(C(=O)C(N)=O)c2c(OCC(=O)O)cccc2n1Cc1ccccc1 [Varespladib] (top concentration tested 10000 nM)	0	3.29	0	0
C[C@@H]1COC(Nc2ccc3ncnc(Nc4ccc(OCc5nccs5)c(Cl)c4)c3c2)=N1 [Varlitinib] (top concentration tested 10000 nM)	0	0.4	0	0
Clc1ccc(Nc2nnc(Cc3ccncc3)c3ccccc23)cc1 [Vatalanib] (top concentration tested 10000 nM)	1.89	0.9	0	0
C[C@]1(c2nc3c(C(N)=O)cccc3[nH]2)CCCN1 [Veliparib] (top concentration tested 10000 nM)	2.28	0	0.43	0
CCCS(=O)(=O)Nc1ccc(F)c(C(=O)c2c[nH]c3ncc(-c4ccc(Cl)cc4)cc23)c1F [Vemurafenib] (top concentration tested 10000 nM)	1.57	0	4.84	3.47
CC1(C)CCC(CN2CCN(c3ccc(C(=O)NS(=O)(=O)c4ccc(NCC5CCOCC5)c([N+](=O)[O-])c4)c(Oc4cnc5[nH]ccc5c4)c3)CC2)=C(c2ccc(Cl)cc2)C1 [Venetoclax] (top concentration tested 1000 nM)	0	0	0	0
O=C(/C=C\n1cnc(-c2cc(C(F)(F)F)cc(C(F)(F)F)c2)n1)NNc1ccccn1 [Verdinexor] (top concentration tested 1000 nM)	17.4	15.5	10.5	5.2
CC[C@]1(O)C[C@@H]2CN(CCc3c([nH]c4ccccc34)[C@@](C(=O)OC)(c3cc4c(cc3OC)N(C)[C@H]3[C@@](O)(C(=O)OC)[C@H](OC(C)=O)[C@]5(CC)C=CCN6CC[C@]43[C@@H]65)C2)C1 [Vinblastine] (top concentration tested 1000 nM)	21.8	19.8	19.4	5.1
CC[C@]1(O)C[C@H]2CN(CCc3c([nH]c4ccccc34)[C@@](C(=O)OC)(c3cc4c(cc3OC)N(C=O)[C@H]3[C@@](O)(C(=O)OC)[C@H](OC(C)=O)[C@]5(CC)C=CCN6CC[C@]43[C@@H]65)C2)C1 [Vincristine] (top concentration tested 1000 nM)	23.6	21.2	16.2	6.72
CCC1=C[C@@H]2CN(C1)Cc1c([nH]c3ccccc13)[C@@](C(=O)OC)(c1cc3c(cc1OC)N(C)[C@H]1[C@@](O)(C(=O)OC)[C@H](OC(C)=O)[C@]4(CC)C=CCN5CC[C@]31[C@@H]54)C2 [Vinorelbine] (top concentration tested 10000 nM)	34	30.6	19.2	5.27
CS(=O)(=O)c1ccc(C(=O)Nc2ccc(Cl)c(-c3ccccn3)c2)c(Cl)c1 [Vismodegib] (top concentration tested 10000 nM)	0.09	0.91	0.14	0
CC[C@@H]1C(=O)N(C)c2cnc(Nc3ccc(C(=O)N[C@H]4CC[C@H](N5CCN(CC6CC6)CC5)CC4)cc3OC)nc2N1C(C)C [Volasertib] (top concentration tested 1000 nM)	21.7	22.1	21.4	12.6
O=C(CCCCCCC(=O)Nc1ccccc1)NO [Vorinostat] (top concentration tested 10000 nM)	9.87	10.6	4.68	2.86
CCn1c(=O)c(-c2cc[nH]n2)cc2c(C)nc(N)nc21 [Voxtalisib] (top concentration tested 10000 nM)	9.9	8.35	3.54	0
Oc1nc(-c2ccc(C(F)(F)F)cc2)nc2c1CSCC2 [XAV-939] (top concentration tested 10000 nM)	1.46	0.17	0	0
O=C(Nc1ccc(-c2ccnc(Nc3ccc(N4CCOCC4)cc3)n2)cc1)C1CCCN1 (stereo unspecified) [XL019] (top concentration tested 10000 nM)	2.07	1.98	0	0
COc1cc2c(Nc3ccc(Cl)c(Cl)c3F)ncnc2cc1OC[C@@H]1C[C@@H]2CN(C)C[C@@H]2C1 [XL-647] (top concentration tested 1000 nM)	0.88	1.72	0	0
COCC[n+]1c2c(n(Cc3cnccn3)c1C)C(=O)c1ccccc1C2=O [YM155] (top concentration tested 10000 nM)	34.7	30.4	27.5	12.8
FC(F)c1nc2ccccc2n1-c1nc(N2CCOCC2)nc(N2CCOCC2)n1 [ZSTK474] (top concentration tested 10000 nM)	16.6	12.8	6.5	0
c1ccc(Cn2c(-c3ccc(OC[C@H](C4CCNCC4)n4c(-c5ccccc5)nc5ccccc54)cc3)nc3ccccc32)cc1 [deltarasin] (top concentration tested 10000 nM)	8.74	7.04	8.33	7.78
